Source: patent publication US20090028830A1, “Preparation of multipotent stem cells and the use thereof” (priority 2005, published 2009)

Biological target: T1, PKCβ2 (Homo sapiens, UniProt P05771)
T1 construct: mononucleated cells constitutively expressed PKC isoforms α, β1, β2, γ, l/λ and ζ; endogenous in cells; host or cells: mononucleated cells (monocytes)
Test: PKC isoform activation/translocation in mononucleated cells during P-stem cell differentiation
Format: cell-based
Details: mononucleated cells pre-treated with Go6976 (1 μM) 30 minutes at 37° C., then Bryostatin-1 (10 nM) at designated time intervals; combined treatment; FIG. 4
Method: The constitutively expressed PKC isoforms in mononucleated cells are detected by Western Blot analysis with each PKC isoform-specific antibodies. […] In the FIG. 1, Mo and pc represents mononucleated cell and PKC positive cell lysate, respectively. To examine the specific activation of PKC isoform(s) iii the differentiation of P-stem cells, mononucleated cells are pre-treated with Go6976 (1 μM) for 30 minutes at 37° C. and then incubated with Brvostatin-1 (10 nM) at designated time intervals. […] Therefore, any substances stimulating the activation of PKCβ2 are capable of inducing the differentiation of P-stem cells.

T1 sequence (P05771 1-673 isoform P05771-2): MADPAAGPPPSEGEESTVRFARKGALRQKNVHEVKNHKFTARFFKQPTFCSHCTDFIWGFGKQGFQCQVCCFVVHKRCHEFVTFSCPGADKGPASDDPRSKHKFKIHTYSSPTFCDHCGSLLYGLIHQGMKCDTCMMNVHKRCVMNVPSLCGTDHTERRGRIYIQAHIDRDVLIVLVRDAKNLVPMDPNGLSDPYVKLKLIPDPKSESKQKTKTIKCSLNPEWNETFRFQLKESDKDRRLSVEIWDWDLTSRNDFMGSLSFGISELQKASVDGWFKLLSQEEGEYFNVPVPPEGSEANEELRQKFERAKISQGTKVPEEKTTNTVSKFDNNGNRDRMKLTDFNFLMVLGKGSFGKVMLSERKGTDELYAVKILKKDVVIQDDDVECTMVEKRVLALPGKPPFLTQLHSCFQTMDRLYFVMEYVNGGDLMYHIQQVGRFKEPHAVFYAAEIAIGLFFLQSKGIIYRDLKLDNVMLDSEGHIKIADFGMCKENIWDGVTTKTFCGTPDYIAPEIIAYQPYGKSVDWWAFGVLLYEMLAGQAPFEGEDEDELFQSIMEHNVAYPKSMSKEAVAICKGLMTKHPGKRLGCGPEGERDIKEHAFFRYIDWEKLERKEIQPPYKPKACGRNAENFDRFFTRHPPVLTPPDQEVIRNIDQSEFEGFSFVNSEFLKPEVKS

Row | SMILES | specific activation of PKC isoform(s) (translocation from cytosol to plasma membrane)
1 | Cn1c2ccccc2c2c3c(c4c5ccccc5n(CCC#N)c4c21)CNC3=O [Go6976] | only PKCβ2 is activated and translocates from cytosol to plasma membrane
2 | CCC/C=C/C=C/C(=O)O[C@H]1/C(=C/C(=O)OC)C[C@H]2C[C@H]([C@@H](C)O)OC(=O)C[C@H](O)C[C@@H]3C[C@H](OC(C)=O)C(C)(C)[C@](O)(C[C@@H]4C/C(=C/C(=O)OC)C[C@H](/C=C/C(C)(C)[C@]1(O)O2)O4)O3 [Brvostatin-1, Bryostatin-1] | only PKCβ2 is activated and translocates from cytosol to plasma membrane
